Tests used:
Molm-14 cells [1] = assay: Proliferation assay, cell count after trypan blue staining, Molm-14; type: cell-based; conditions: 1 or 5 μM, 24-72 h, by comparison with PFI-1
Protocol: (§1) Cell count and viability was determined after trypan blue staining. The appropriate concentrations of the inhibitors per ml of medium were added, or the correspondingly highest volume of DMSO was added as control group.
(§2) The cell growth described here is referred to as proliferation, and gives information as to the cell divisions that proceeded in the specified period.

[2] = tested on: mononuclear cells from AML patients; assay: CFU assay, AML patients; type: cell-based, human
Protocol: With the aid of the CFU assay, it is possible to determine the colony-forming capacity of individual cells in a semisolid methylcellulose medium (MethoCult H4434, StemCell Technologies, Cologne, Germany). The number of colonies was determined after 7-11 days.
Mononuclear cells from the bone marrow from AML patients: 7×10^5 cells/ml
Vital sterile mononuclear bone marrow cells from AML patients were cultured for 24 h in 1.5 ml of BIT Medium in 8.5 ml of IMDM medium (to which had been added 5 μl of FLT3 ligand, 10 μl of rh SCF, 2 μl of rh IL-3, 2 μl of rh G-CSF, 50 μl of ciprofloxacin and 6.99 μl of β-mercaptoethanol in 1:100 dilution), before they were used in the CFU assay.
Individual cells in the CFU assay form cell colonies in culture after 12 days, unless the formation thereof is prevented by inhibitors.

[3] = tested on: PARP1 cleavage in HEL cells; assay: PARP1 cleavage Western blot (apoptosis), HEL; type: cell-based; conditions: 5 μM
Protocol: (§3) Cell lysates were produced with RIPA lysis buffer (50 mM Tris pH 7.4, 150 mM sodium chloride, 1 mM EDTA, 1% Triton-X, 15% glycerol, 0.5% sodium deoxycholate, and protease/phosphatase inhibitors). Protein concentrations were determined by the Bradford Protein Assay using a Nanodrop Spectrometer (NanoDrop 2000/2000c system, Thermo Fisher Scientific, Darmstadt, Germany) at 595 nm. To 25 μg of protein lysates was added 4xLämmli sample buffer, followed by denaturing at 65° C. for 5 min and introduction into the SDS-Page. The proteins were transferred by the wet blot method in Towbin buffer (3 g Tris, 14.4 g glycine, 5% methanol per litre of ddH2O) to a PVDF membrane at 100 mA overnight. The membrane was blocked with 10% BSA in TBS-T buffer (20 mM Tris-HCl, pH 7.6, 137 mM NaCl, 0.05% IGEPAL). The primary antibodies were incubated at 4° C. overnight, and the HRP-labelled antibodies at room temperature with the membrane for […]. The proteins were detected by means of PCA-ECL solution using a chemiluminescence detector (Fusion SL, PeqLab).
In addition, a possible induction of apoptosis in the cell lines described by compound MF2 was examined. […] Protein concentrations were determined with the Bradford protein assay using a Nanodrop Spectrometer at 595 nm. […] The proteins were detected by means of PCA-ECL solution using a chemiluminescence detector (Fusion SL, PeqLab). […]

Molm-14 cells [4] = assay: Viability from trypan blue staining, Molm-14; type: cell-based; conditions: 5 μM, compared to PFI-1
Protocol: as §1
During the study of cell proliferation, the viability of the cell lines was likewise determined from the trypan blue staining. Trypan blue cannot penetrate into living cells.

[5] = tested on: proteins from the BET family; assay: Thermal shift assay (BromoMELT assay), BET family; type: binding; conditions: 10 μM, duplicates, versus DMSO control; apart from BRDT-2
Protocol: (§4) The experiment was conducted in duplicates at a concentration of 10 μM.

[6] = tested on: PARP1 cleavage in Molm-14 cells; assay: PARP1 cleavage Western blot (apoptosis), Molm-14; type: cell-based; conditions: 5 μM
Protocol: as §3
In addition, a possible induction of apoptosis in the cell lines described by compound MF2 was examined. […] The cleavage of the PARP1 protein is an indicator of incipient apoptosis (cell death) of the cells, and the cleavage products of PARP1 were accordingly examined by Western blot. In detail, after the inhibitor treatment, cell lysates were produced with RIPA lysis buffer. Protein concentrations were determined with the Bradford protein assay using a Nanodrop Spectrometer at 595 nm. To 25 μg of the protein lysates was added 4×Lämmli sample buffer, followed by denaturing at 65° C. for 5 min and introduction into the SDS-Page. The proteins were transferred by the wet blot method to a PVDF membrane at 100 mA overnight. The membrane was blocked with 10% BSA in TBS-T buffer. The primary antibodies were incubated at 4° C. overnight, and the HRP-labelled antibodies at room temperature with the membrane for 45 min. The proteins were detected by means of PCA-ECL solution using a chemiluminescence detector (Fusion SL, PeqLab). […]

[7] = tested on: haematopoietic cell lines, erythroleukaemia and AML cell lines; assay: Inhibitory activity in haematopoietic cell lines (summary statements); type: cell-based
Protocol: All studies with the HEL, Molm-14 and K562 cell lines mentioned (sourced from DSMZ: ACC-11, ACC-10 and ACC-777) were conducted under germ-free conditions under a sterile hood. Incubation was effected at 37° C. in an incubator at a CO2 saturation of 5%. For the passage of the suspension cells, the cells were transferred in a Falcon prefilled with PBS (phosphate buffered saline) and centrifuged at 1200 rpm for 5 min. All three cell lines were cultured in RPMI-1640 medium (Gibco, Thermo Fischer Scientific, Darmstadt, Germany) with 10% FCS and 1% penicillin streptomycin.
The viability and metabolic activity of the cells were measured by the MTT assay. Yellow, water-soluble MTT (3-([…])-2,5-diphenyltetrazolium bromide) is a tetrazolium salt which is reduced to dark blue formazan in living cells. Insoluble formazan is released by addition of isopropanol-HCl, and its intensity can be determined by photometry at a wavelength of 550 nm. Thus, the proportion of living cells is measured by comparison with a particular control sample. The cells were counted and washed with PBS, and 30 000 cells per well were sown in triplicates in a 96-well plate. For the inhibitor treatment, the stated final concentrations were used. For this purpose, 10 µl of the appropriate inhibitor dilution was introduced into the 96-well plates, and then 90 μl of cell suspension was pipetted in. The plates were incubated in an incubator for 72 h (37° C., 5% CO2). After the incubation, 10 μl of MTT solution (5 mg/ml) was applied to the wells with a multichannel pipette and thoroughly resuspended. This was followed by incubation for 4 h in the dark at room temperature. Subsequently, the cells were resuspended in 100 μl of isopropanol-HCl and lysed, and absorption at a wavelength of 550 nm was measured by photometry with a plate reader (Kayto, RT-2100C).

HEL cells = assay: Proliferation assay, cell count after trypan blue staining, HEL; type: cell-based; conditions: 1 or 5 μM, 24-72 h, by comparison with PFI-1
Protocol: as §1, §2

BRD4 = assay: Thermal shift assay (BromoMELT assay), BRD4; type: binding; conditions: 10 μM, duplicates, versus DMSO control
Protocol: as §4

Question: How did the “cell proliferation (cell count) of Molm-14” value (Molm-14 cells [1]) turn out when `CN1Cc2cc(N=[S@@](C)(=O)c3ccccc3)ccc2NC1=O` [MF2-S, (S)—N-(3-methyl-2-oxo-1,2,3,4-tetrahydroquinazolin-6-yl)-S-methyl-S-phenylsulfoximine] was run?
Answer: The value was “significantly reduced the cell proliferation”.

Question: And the “colony count, AML patients, 1 μM versus 5 μM PFI-1” value ([2]; 1 μM)?
Answer: The value was “just as efficient as 5 μM PFI-1”.

Question: What about the “colony count, AML patients” value ([2]; 1 μM and 5 μM, compared to PFI-1 at same concentration) of the same compound?
Answer: Its value is “reduced the colony count to a significantly greater degree than PFI-1”.

Question: And the “band for the PARP1 cleavage product, HEL” value ([3]; 48 h, compared to PFI-1)?
Answer: Its value is “more marked in HEL cells than in the case of PFI-1 treatment”.

Question: What about the “induction of apoptosis, HEL” value ([3]; compared to MF2, MF2-R, PFI-1) of the same compound?
Answer: The value was “induced apoptosis more strongly than the other compounds examined”.

Question: What about the “viability of Molm-14 cells” value (Molm-14 cells [4]) of the same compound?
Answer: Its value is “significantly reduced the viability”.

Question: And the “binding of BET family proteins (ΔTm, in words)” value [5]?
Answer: Its value is “equally good or better binding of proteins from the BET family compared to the comparative compound PFI-1”.

Question: What about the “uncleaved PARP1, Molm-14” value ([6]; 48 h) of the same compound?
Answer: Its value is “less uncleaved PARP1 was apparent”.

Question: And the “band for the PARP1 cleavage product, Molm-14” value ([6]; 48 h, compared to PFI-1)?
Answer: The value was “same intensity”.

Question: And the “induction of apoptosis, Molm-14” value ([6]; compared to MF2, MF2-R, PFI-1)?
Answer: The value was “induced apoptosis more strongly than the other compounds examined”.

Question: What about the “inhibitory activity in haematopoietic / leukaemia cell lines (in words)” value [7] of the same compound?
Answer: The value was “excellent inhibition of the cell proliferation”.

Question: What about the “cell proliferation (cell count) of HEL” value (HEL cells) of the same compound?
Answer: Its value is “significantly reduced the cell proliferation”.

Question: What about the “binding / specificity for BRD4 (ΔTm, in words)” value (BRD4) of the same compound?
Answer: Its value is “more specific binding of BRD4”.
